The text below walks through data of US9267949B2, “Alkylamino BODIPY dyes as selective fluorescent probes for proteins and mouse embryonic stem cells” (National University of Singapore, priority 2011, dated 2016).

The structures appear in SMILES notation.

For series [1] the following is noted: in EtOH, excitation at 510 nm; cited from earlier work.
Series [2] concerns human IgG. The series can be described thus: Screening the BDM library: fluorescence response against proteins and peptides. The settings on record: 10 μM dye. Format: binding. As for the experimental part:
Fluorescence intensities were measured using a Spectra Max Gemini XSF plate reader in a 384-well plate. BDM compounds were dissolved to a final concentration of 10 μM (20 mM HEPES buffer, pH 7.4, containing 1% DMSO) and incubated with different proteins and peptides at different serial concentrations in 20 mM HEPES buffer (pH 7.4) (FIG. 1a). The excitation wavelength was set at 510 nm, and the emission spectra were recorded from 560 to 700 nm. Fluorescence fold increase ratios were determined by referring the maximum fluorescence intensity emission of BDM compounds in the presence of the screened proteins and peptides to the maximum fluorescence intensity emission of BDM compounds in 20 mM HEPES buffer (pH 7.4) (FIG. 1b).

Series [3] addresses human IgG. The series can be described thus: Surface plasmon resonance on immobilized immunoglobulin chip. Format: binding. The settings on record: 25° C., read-out: KD (SPR, steady-state model). An excerpt:
The following experiments were aimed at determining the dissociation constant of the interaction between Ig Orange and human IgG. Surface Plasmon Resonance (SPR) has been extensively used to measure the binding constants between small molecules and biopolymers, 25 and we modified human IgG with biotin so that it could be immobilized on a neutravidin-coated sensor chip. Upon immobilization of the biotinylated protein on a neutravidin-coated sensor chip CM7, we performed Ig Orange titrations in duplicate with increasing concentrations of the small molecule.
Human IgG (5.0 mg, 0.033 μmol) and biotin-OSu (0.11 mg, 0.33 μmol) were dissolved in 0.1 M NaHCO3 (pH 8.5) and shaken for 1 h at 25° C. […] The fluorescence response of Ig Orange to IgG and biotinylated IgG was compared (FIG. 5). The concentration of biotinylated IgG before fluorescence and SPR experiments was determined by Bradford assay. […] Job Plot Analysis: Ig Orange (final concentrations: 0, 1.6, 3.2, 4.8, 6.4, 8.0, 9.6, 11.2, 12.8, 14.4, 16 μM) and human IgG (final concentrations: 16, 14.4, 12.8, 11.2, 9.6, 8.0, 6.4, 4.8, 3.2, 1.6, 0 μM) were incubated in PBS buffer (pH 7.3) containing 1% DMSO, and the fluorescence intensities of the different solutions were recorded on a SpectraMax M2 plate reader (excitation: 530 nm; emission: 590 nm). […]

Series [4] in a line: Spectroscopic properties of the BDM library (absorbance and emission maxima). Type of series: physicochemical.
The target of series [5] is human IgG. The series can be described thus: Fluorescence-based fractional saturation curve. The settings on record: 10 μM dye, 20 mM HEPES pH 7.4, exc 530 nm, em 590 nm; read-out: dissociation constant Kd (fluorescence binding saturation curve). As for the experimental part:
Ig Orange (10 μM) was incubated with different concentrations of human IgG in 20 mM HEPES buffer (pH 7.4) and the fluorescence intensities were recorded on a SpectraMax M2 plate reader (excitation: 530 nm; emission: 590 nm) (FIG. 9).

Series [6] can be described thus: Quantum yield measurements. Format: physicochemical. The settings on record: referred to Rhodamine B in EtOH, excitation 510 nm, emission integrated 540-800 nm. Put shortly:
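Integrated fluorescence emission from 540 to 800 nm was referenced to Rhodamine B in EtOH (Φ=0.70) after excitation at 510 nm. Quantum yield was calculated with correction for solvent refractive index and absorbance at the excitation wavelength.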

For series [7], the system named is human IgG. The series can be described thus: Structure-fluorescence relationships: Ig Orange vs BD-69 with human IgG. Format: binding. The settings on record: 10 μM each, 20 mM HEPES pH 7.4. As for the experimental part:
Ig Orange (BDM-69) (10 μM) and BD-69 (10 μM) were incubated with different concentrations of human IgG in 20 mM HEPES buffer (pH 7.4) and the fluorescence intensities were recorded on a SpectraMax M2 plate reader (excitation: 530 nm; emission: 590 nm), as shown in FIG. 7a. Values are represented as means (n=3) of the fluorescence fold increase after incubation with the protein.

For series [8], the system named is Fab and Fc fragments of human IgG1. The series can be described thus: Fluorescence increase with Fab and Fc fragments. The settings on record: Fab vs Fc fragments of human monoclonal IgG1. Format: binding. As for the experimental part: FIGS. 6a and 6b show binding sensorgrams of Ig Orange (0.07, 0.21, 0.62, 1.86, 5.57 and 16.70 μM) upon injection across an immobilized immunoglobulin chip, which were fit using the equilibrium responses of a steady-state model. […] Values are represented as means (n=3) and error bars as standard deviations.
In order to identify the region of human IgG to which Ig Orange binds, we evaluated the fluorescence response of Ig Orange in the presence of human polyclonal IgG and monoclonal IgG1, the most abundant subtype. […] To confirm this observation and determine the stoichiometry of the complex between Ig Orange and the full immunoglobulin, we analyzed the interaction by means of a Job plot. A maximum fluorescence increase was detected for a 2:1 Ig Orange:immunoglobulin ratio, which supported our observation that the preferred binding region of Ig Orange corresponded to the Fab fragments of the immunoglobulin (FIG. 7b). […] With this first adaptation of the BODIPY scaffold to a solid-phase approach we accelerated the development of alkylamino BODIPY-based fluorescent probes, being Ig Orange the first immunoglobulin fluorescent sensor.

As for `CCN(CC)c1ccc2c(-c3ccccc3C(=O)O)c3ccc(=[N+](CC)CC)cc-3oc2c1.[Cl-]` [Rhodamine B], in series [1], the “Quantum yield of standard (ΦRho-B)” value is reported as 0.70.
Turning to `CC1=CC(/C=C/c2ccc(/C=C/c3ccccc3)cc2)=[N+]2C1=C(CCN)c1cccn1[B-]2(F)F` [BDM-69], the “turn-on fluorescence increase in the presence of human IgG” value in the series with human IgG [2] (20 mM HEPES buffer pH 7.4) is given as 75 fold. In addition, in the series on human IgG [2] (20 mM HEPES pH 7.4, exc 510 nm), the “selectivity profile against proteins and peptides” value is “best selectivity profile among the whole library”. In addition, the Kd at human IgG [3] came out at 71.7 ± 0.6 µM. In series [4], the “λmax (ABS)” value came out at 574 nm and the “λmax (EM)” value is listed as 594 nm. On human IgG [5], the Kd is 14.1 ± 0.9 µM. For the same molecule, in series [6], the “φ (quantum yield)” value worked out at 0.32. Also, the “higher fluorescence increase of Ig Orange relative to BD-69 vs. human IgG” value with human IgG [7] was 15 fold. The “preferred binding region of the immunoglobulin” value in series [8] was “preferred binding to the Fab region”.
